Measurements taken from US20090247492A1, “MANGANESE BASED ORGANOMETALLIC COMPLEXES, PHARMACEUTICAL COMPOSITIONS AND DIETETIC PRODUCTS” (MEDESIS PHARMA S.A.,, priority 2003, published 2009).
Where “and” joins values, the source holds several entries; their conditions need not be identical. Equal entries are not always repeated.

Columns and labels:
[1] = activity of the sterol constituent (test not specified); conditions: pure sterol in place of sitosterol
[2] = tested on: edema produced by injection of adriamycin under the arch of the hind paw of the rat; experiment: adriamycin test: paw edema in the Wistar rat (anti-free radical activity); format: in vivo; design: Paw volume, group mean: unit not given beside the values; conditions: for Paw volume, individual animals / Paw volume, group mean / Percentage paw edema, individual animals / Percentage paw edema, group mean: 100 mg/kg IP daily; for Paw volume, group mean / Percentage paw edema, group mean: 10 rats; for Percentage of edema inhibition (protection): vs olive oil control, Diosmine 100 mg/kg IP, Example 4 1 ml/kg IP
Method: The adriamycin test is a specific test used to show evidence of the anti-free radical activity of a test substance. This test is described in G. Jadot, Cedema from adriamycin in the Wistar rat. SuperOxide Dismutases, p 73-77, Masson Ed., Paris, 1988.
One hour following injection of Adriamycin, a temporary inflammatory response lasting 12 hours can be observed. This first phase corresponds to the release of histamine, serotonine and the accumulation of polynuclear neutrophiles. A second inflammatory phase commences on the third day following administration and continues for 5 days. During this inflammatory phase, vascular hyperpermeability […] endothelial cell membrane alteration produced by free radical oxidative damage. Steroidal and non-steroidal anti-inflammatory drugs are not effective during this second inflammatory phase.
Research into an anti-free radical activity in the rat by intra-peritoneal administration consists of measuring the reduction in edema produced by injection of adriamycin under the arch of the hind paw of the rat.
Male Wistar rats were used for these tests, after a quarantine period of 15 days.
(Edema was induced by subcutaneous injection of a 0.2 ml solution of adriamycin (2.5 mg/ml) in the arch of the right hind paw of the rat (Siegel's method modified by Jadot (1988)).
The compounds tested were administered 2 hours before the first measurements on the first day, and 1 hour before the measurements on the following days, until the 8th day.
The measurement of edema volume was determined by plethysmography and was performed immediately before injection of adriamycin on the first day (base measurement), and then every day at the same time.
The treatment was maintained for the entire duration of the study. The control group received the dosing vehicle only.
Following the establishment of groups of 10 animals, daily intra-peritoneal administration was carried out according to the following scheme:
Negative control: animals administered olive oil (1 ml/kg).
Positive control: animals administered 100 mg/kg de diosmine (1 ml/kg).
Example 4: animals administered example 4 (1 mil/kg)
Paw edema, expressed as a percentage, is calculated for each animal at each time point:
The percentage reduction in paw oedema at each time point and for each group of animals are calculated as follows: […]
Anti-free radical activity is shown by a significant reduction in paw volume in the treated group compared to the control group.

[3] = iv-injected, rat; cited from earlier work
[4] = tested on: edema produced by injection of adriamycin under the arch of the hind paw of the rat; conditions: cf JL Jadot; cited from earlier work

CC(C)[C@H](C)CC[C@@H](C)[C@H]1CC[C@H]2[C@@H]3CC=C4C[C@@H](O)CC[C@]4(C)[C@H]3CC[C@]12C [campesterol]
activity of pure sterol [1]: no activity

COc1ccc(-c2cc(=O)c3c(O)cc(O[C@@H]4O[C@H](CO[C@@H]5O[C@@H](C)[C@H](O)[C@@H](O)[C@H]5O)[C@@H](O)[C@H](O)[C@H]4O)cc3o2)cc1O [Diosmine]
Paw volume, individual animals ([2]; D1 (base), before adriamycin, 100 mg/kg): 116 and 108 and 102 (2×) and 105 and 120 and 113 and 107 and 103 and 91
Paw volume, group mean ([2]; D1 (base), before adriamycin): 106.70
Paw volume in comparison to the negative control ([2]; D2-D7, highest significance for Example 4 at D3 and D4 (p<0.001), disappears at D8): statistically significant difference
Paw volume, individual animals ([2]; D2): 129 and 152 and 112 (2×) and 107 and 128 and 135 and 118 and 110 and 105
Percentage paw edema, individual animals ([2]; D2): 11.21% and 40.74% and 9.80% (2×) and 1.90% and 6.67% and 19.47% and 10.28% and 6.80% and 15.38%
Paw volume, group mean ([2]; D2): 120.80
Percentage paw edema, group mean ([2]; D2): 13.21%
Percentage of paw edema, change versus control ([2]; D2 to D5, most significant at D3 for Example 4 (p<0.001)): significant decrease
Paw volume, individual animals ([2]; D3): 162 and 181 and 142 and 126 and 158 and 160 (2×) and 138 and 134 and 161
Percentage paw edema, individual animals ([2]; D3): 39.66% and 67.59% and 39.22% and 20.00% and 31.67% and 41.59% and 49.53% and 35.29% and 30.10% and 76.92%
Paw volume, group mean ([2]; D3): 152.20
Percentage paw edema, group mean ([2]; D3): 43.16%
Percentage of edema inhibition (protection) ([2]; D3): 44.15%
Paw volume, individual animals ([2]; D4): 152 (2×) and 121 and 180 and 143 and 172 and 158 and 142 and 223 and 187
Percentage paw edema, individual animals ([2]; D4): 31.03% and 12.04% and 76.47% and 36.19% and 43.33% and 39.82% and 32.71% and 118.63% and 81.55% and 67.03%
Paw volume, group mean ([2]; D4): 163.00
Percentage paw edema, group mean ([2]; D4): 53.88%
Percentage of edema inhibition (protection) ([2]; D4): 36.98%
Paw volume, individual animals ([2]; D5): 195 and 200 and 152 and 172 and 188 and 175 and 186 and 165 and 173 and 170
Percentage paw edema, individual animals ([2]; D5): 68.10% and 85.19% and 49.02% and 63.81% and 56.67% and 54.87% and 73.83% and 61.76% and 67.96% and 86.81%
Paw volume, group mean ([2]; D5): 177.6
Percentage paw edema, group mean ([2]; D5): 66.80%
Percentage of edema inhibition (protection) ([2]; D5): 21.77%
Paw volume, individual animals ([2]; D6): 193 and 194 and 153 and 179 and 177 and 172 and 199 and 167 and 183 and 158
Percentage paw edema, individual animals ([2]; D6): 66.38% and 79.63% and 50.00% and 70.48% and 47.50% and 52.21% and 85.98% and 63.73% and 77.67% and 73.63%
Paw volume, group mean ([2]; D6): 177.50
Percentage paw edema, group mean ([2]; D6): 66.72%
Percentage of edema inhibition (protection) ([2]; D6): 12.03%
Paw volume, individual animals ([2]; D7): 195 and 176 and 148 and 174 and 164 (2×) and 166 and 172 and 173 and 150
Percentage paw edema, individual animals ([2]; D7): 68.10% and 62.96% and 45.10% and 65.71% and 36.67% and 46.90% and 60.75% and 60.78% and 67.96% and 64.84%
Paw volume, group mean ([2]; D7): 168.20
Percentage paw edema, group mean ([2]; D7): 57.98%
Percentage of edema inhibition (protection) ([2]; D7): 14.05%
Paw volume, individual animals ([2]; D8): 180 and 173 and 145 and 156 and 165 and 164 (2×) and 175 and 159 and 154
Percentage paw edema, individual animals ([2]; D8): 55.17% and 60.19% and 42.16% and 48.57% and 37.50% and 45.13% and 63.55% and 60.78% and 54.37% and 69.23%
Paw volume, group mean ([2]; D8): 163.50
Percentage paw edema, group mean ([2]; D8): 53.67%
Percentage of edema inhibition (protection) ([2]; D8): 0%
Free radical protection activity (conclusion) ([2]; edema progression compared to the control group): confirmed its activity

bovine SOD: bovine superoxide dismutase enzyme
circulation half life [3]: 7 min
Protection against edema from free radical damage [4]: possesses the same characteristics as Diosmine

CC[C@H](CC[C@@H](C)[C@H]1CC[C@H]2[C@@H]3CC[C@H]4C[C@@H](O)CC[C@]4(C)[C@H]3CC[C@]12C)C(C)C [sitostanol]
activity of pure sterol [1]: no activity
